Values of other authors, collected in US20250303004A1, “RADIOPHARMACEUTICAL COMPOSITIONS FOR LOW TOXICITY ACTINIUM IN TARGETED RADIONUCLIDE THERAPY” (Curium US LLC, priority 2021, published 2025).

What was measured:
[1] = test system: patient with advanced mCRPC; details: cited from earlier work
[2] = test system: kidneys and lesion of a mCRPC patient; details: 8.1 MBq, cited from earlier work
patients = details: cited from earlier work
[3] = subgroup of 11 patients with prior ^177Lu-PSMA treatment
[4] = subgroup with prior ^177Lu-PSMA radioligand therapy

**Q.** What does the source list for `O=C(O)CC[C@H](NC(=O)N[C@@H](CCCCNC(=O)CCCCCCC(=O)NCCCC[C@@H](NC(=O)[C@@H](Cc1ccccc1)NC(=O)[C@@H](Cc1ccc(O)c(I)c1)NC(=O)CC[C@H](C(=O)O)N1CCN(CC(=O)O)CCN(CC(=O)O)CCN(CC(=O)O)CC1)C(=O)O)C(=O)O)C(=O)O.[225Ac+3]` [^225Ac-PSMA-I&T, (3S,7S,26R,29R,32R,37R)-29-benzyl-32-(4-hydroxy-3-iodobenzyl)-5,13,20,28,31,34-hexaoxo-37-(4,7,10-tris(carboxymethyl)-1,4,7,10-tetraazacyclododecan-1-yl)-4,6,12,21,27,30,33-heptaazaheptatriacontane-1,3,7,26,37-pentacarboxylic acid; Actinium-225 (III)]?
**A.** main TAT-related side effect ([1]; already preexisting after 10 cycles of RLT): grade 2 xerostomia; response ([1]; two cycles after failure of ^177Lu-PSMA-617 (10 cycles), FIG. 6): encouraging response; hematological side effects ([1]; two cycles): No TAT-related grade 3/4 hematological side effects were noted; absorbed dose, left kidney ([2]; SPECT/CT at 24 h p. i.): 0.18 Sv(RBE=5)/MBq; absorbed dose, right kidney ([2]; SPECT/CT at 24 h p. i.): 0.17 Sv(RBE=5)/MBq; absorbed dose, small lesion in the right hip [2]: 0.26 Sv(RBE=5)/MBq; acute toxicity during hospitalization (patients; 14 patients, 34 cycles, median 7.8 MBq): No acute toxicity was observed; hematologic toxicity (patients; 14 patients, FIG. 13): mild; patients with grade 1 nephrotoxicity (patients; 14 patients, FIG. 13): one; biochemical responses compared with ^225Ac-PSMA-617 TAT (patients; first clinical data): highly comparable biochemical responses; patients with grade 3 anemia after TAT (patients; of 14 patients, 2 with grade 2 anemia at baseline): 3 patients; patients reporting no xerostomia at all (patients; of 14 patients): One; patients with PSA decline of any amount (patients; of 14 patients): 11 patients; patients with best PSA response (PSA decline ≥50%) (patients; of 14 patients): 7 patients; patients with grade 3 leukopenia (patients; of 14 patients): 1 patients; patients with newly diagnosed grade 1 or 2 xerostomia after TAT (patients; of 14 patients): 5 patients; patients with no PSA decline at any time (patients; of 14 patients): Three; patients with preexisting xerostomia after ^177Lu-PSMA showing no worsening after TAT (patients; of 14 patients): Eight; patients with PSA decline of at least 50% (patients; [3]): 5 patients; patients with any PSA decline (patients; [3]): 8 patients; PSA decline ≥50% (patients; [4]): 45%; any PSA decline (patients; [4]): 73%
